Source: PubChem BioAssay AID2060485 (Molecular Pharmacology Branch, DTP, NCI, 2025)

Test system: A375 multi-cell spheroids with HUVEC/MSC, viability
Experiment: Anticancer human tumor A375 cell line growth inhibition [GQUAD];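 note: spheroids exposed to compounds for seven days before readout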
Conditions: for IC50: curve of first compound; for viability, T/C: stronger effect = lower value
From the text: DNA G-quadruplex Stabilizer Agents in Combinations in Complex Spheroids
A high-throughput screen of multi-cell type tumor spheroids was designed to identify active combinations of DNA G-quadruplex stabilizer agents and targeted small molecules. Complex spheroids include a stromal component modeled by human endothelial cells (HUVEC) and fibroblasts modeled by human mesenchymal stem cells (MSCs). The concentration ranges selected for each drug and investigational agent were based upon clinically achievable concentrations if the clinical Cmax of the agent was known.
Compounds. The drugs and investigational agents: pidnarulex (CX-5461; NSC782164), APTO-253 (NSC789042), BRACO-19 (NSC847499), peposertib (NSC802822), ceralasertib (NSC780249), elimusertib (NSC800525), camonsertib (NSC841442), AZD-1390 (NSC803789), olaparib (NSC753686), talazoparib (NSC767125), ART-558 (NSC835418), sotorasib (NSC818433), MRTX-1133 (NSC836407), SN-38 (NSC673596), topotecan (NSC609699), etoposide (NSC141540), doxorubicin (NSC123127), gemcitabine (NSC613327), 5-fluorouracil (NSC19893), paclitaxel (NSC125973), vemurafenib (NSC761431), panobinostat (NSC761190), R-306465 (JNJ-16241199; NSC773264), adavosertib (NSC754352), TP-3654 (NSC805149), carboplatin (NSC241240), KSQ-4279 (NSC840948), and staurosporine (NSC755774) were obtained from the National Cancer Institute (NCI) Developmental Therapeutics Program Chemical Repository (34). The FDA-approved anticancer drug set is available from the NCI Developmental Therapeutics Program. […] The stock solutions were prepared in dimethyl sulfoxide (DMSO, Sigma-Aldrich, St. Louis, MO, cat. D2650) at 800-fold the tested concentration and stored at -70 degrees C prior to their use. All drugs and investigational agents were tested over a range starting from a high concentration at or near the clinical Cmax and decreasing in half-log increments. If the clinical Cmax for an agent had not been determined, the highest concentration tested was 10 microM.
2.3 Cell Culture. All cells were maintained in an incubator at 37 degrees C and 5% CO2 with 95% humidity. The PDC lines were cultured according to standard operating procedures established by the NCI PDMR. All PDCs were thawed and cultured in Matrigel-coated flasks prepared with a working solution of 1X Ham's F-12 nutrient mix, without supplementation (Invitrogen, cat. 11765054), 100 U/mL penicillin-streptomycin (Invitrogen, cat. 15140122), and 2.5% Matrigel (Corning Inc., cat. 354248) for the first three passages. The 857933-349-R-J2-PDC line was cultured in 6C/Colon 1B media, which includes advanced DMEM/F-12 (Thermo Fisher Scientific, cat. 12634028), 10 mM HEPES (Thermo Fisher Scientific, cat. 15630080), 1X GlutaMAX supplement (Thermo Fisher Scientific, cat. 35050061), 0.1 mg/mL primocin (InvivoGen, cat. ant-pm-2), 10% defined fetal bovine serum, heat inactivated (HyClone Laboratories Inc., cat. SH30070.03HI), 50% L-WRN conditioned media (ATCC, cat. CRL-3276), 1.25 mM N-Acetyl-L-cysteine (Sigma-Aldrich, cat. A9165), 10 mM nicotinamide (Sigma-Aldrich, cat. N0636), 1X B-27 supplement (Thermo Fisher Scientific, cat. 17504044), 1X N-2 supplement (Thermo Fisher Scientific, cat. 17502048), 10 microM Y-27632 dihydrochloride (Tocris Bioscience, cat. 1254), and 50 ng/mL human EGF recombinant protein (Thermo Fisher Scientific, cat. PHG0311). The 485176-168-R4-J1-PDC line was cultured in Panc media, which includes all 6C/Colon 1B media components plus 100 ng/mL human FGF-10 (Thermo Fisher Scientific, cat. 100-26), 500 nM SB-431542 (Selleckchem, cat. S1067), and gastrin (Tocris, cat. 3006).
[…]

[1] = second compound 0.0316 µM, first compound 0.0316 µM
[2] = second compound 0.0316 µM, first compound 0.1 µM
[3] = second compound 0.0316 µM, first compound 0.316 µM
[4] = second compound 0.0316 µM, first compound 1 µM
[5] = second compound 0.0316 µM, first compound 3.16 µM
[6] = second compound 0.0316 µM, first compound 10 µM
[7] = second compound 0.1 µM, first compound 0.0316 µM
[8] = second compound 0.1 µM, first compound 0.1 µM
[9] = second compound 0.1 µM, first compound 0.316 µM
[10] = second compound 0.1 µM, first compound 1 µM
[11] = second compound 0.1 µM, first compound 3.16 µM
[12] = second compound 0.1 µM, first compound 10 µM
[13] = second compound 0.316 µM, first compound 0.0316 µM
[14] = second compound 0.316 µM, first compound 0.1 µM
[15] = second compound 0.316 µM, first compound 0.316 µM
[16] = second compound 0.316 µM, first compound 1 µM
[17] = second compound 0.316 µM, first compound 3.16 µM
[18] = second compound 0.316 µM, first compound 10 µM
[19] = second compound 1 µM, first compound 0.0316 µM
[20] = second compound 1 µM, first compound 0.1 µM
[21] = second compound 1 µM, first compound 0.316 µM
[22] = second compound 1 µM, first compound 1 µM
[23] = second compound 1 µM, first compound 3.16 µM
[24] = second compound 1 µM, first compound 10 µM
[25] = second compound 3.16 µM, first compound 0.0316 µM
[26] = second compound 3.16 µM, first compound 0.1 µM
[27] = second compound 3.16 µM, first compound 0.316 µM
[28] = second compound 3.16 µM, first compound 1 µM
[29] = second compound 3.16 µM, first compound 3.16 µM
[30] = second compound 3.16 µM, first compound 10 µM
[31] = second compound 10 µM, first compound 0.0316 µM
[32] = second compound 10 µM, first compound 0.1 µM
[33] = second compound 10 µM, first compound 0.316 µM
[34] = second compound 10 µM, first compound 1 µM
[35] = second compound 10 µM, first compound 3.16 µM
[36] = second compound 10 µM, first compound 10 µM

CC1COCCN1c1cc(-c2ccnn2C)c2ccnc(-c3ccn[nH]3)c2n1 (stereo unspecified) + CN(C)c1ccc(Nc2c3ccc(NC(=O)CCN4CCCC4)cc3nc3cc(NC(=O)CCN4CCCC4)ccc23)cc1
IC50 (second compound 0.0316 µM): 0.308 µM | IC50 (second compound 0.1 µM): 0.303 µM | IC50 (second compound 0.316 µM): 0.344 µM | IC50 (second compound 1 µM): 0.339 µM | IC50 (second compound 3.16 µM): 0.319 µM | IC50 (second compound 10 µM): 0.283 µM | viability, T/C [1]: 105% | viability, T/C [2]: 78.3% | viability, T/C [3]: 50.8% | viability, T/C [4]: 25.8% | viability, T/C [5]: 10% | viability, T/C [6]: 9.41% | viability, T/C [7]: 114% | viability, T/C [8]: 82% | viability, T/C [9]: 48.8% | viability, T/C [10]: 26.6% | viability, T/C [11]: 10.1% | viability, T/C [12]: 9.57% | viability, T/C [13]: 111% | viability, T/C [14]: 82.6% | viability, T/C [15]: 53.6% | viability, T/C [16]: 26.7% | viability, T/C [17]: 11.1% | viability, T/C [18]: 9.6% | viability, T/C [19]: 108% | viability, T/C [20]: 82.9% | viability, T/C [21]: 51.4% | viability, T/C [22]: 27.5% | viability, T/C [23]: 11.2% | viability, T/C [24]: 8.68% | viability, T/C [25]: 110% | viability, T/C [26]: 83.9% | viability, T/C [27]: 48.9% | viability, T/C [28]: 28.2% | viability, T/C [29]: 10.8% | viability, T/C [30]: 10.2% | viability, T/C [31]: 97.7% | viability, T/C [32]: 74.2% | viability, T/C [33]: 47.3% | viability, T/C [34]: 27.6% | viability, T/C [35]: 11.1% | viability, T/C [36]: 9.62%

CC1COCCN1c1cc(C2(S(C)(=N)=O)CC2)nc(-c2ccnc3[nH]ccc23)n1 (stereo unspecified) + CN(C)c1ccc(Nc2c3ccc(NC(=O)CCN4CCCC4)cc3nc3cc(NC(=O)CCN4CCCC4)ccc23)cc1
IC50 (second compound 0.0316 µM): 6.09 µM | IC50 (second compound 0.1 µM): 5.86 µM | IC50 (second compound 0.316 µM): 6.26 µM | IC50 (second compound 1 µM): 7.3 µM | IC50 (second compound 3.16 µM): 7.46 µM | IC50 (second compound 10 µM): 6.4 µM | viability, T/C [1]: 102% | viability, T/C [2]: 105% | viability, T/C [3]: 102% | viability, T/C [4]: 108% | viability, T/C [5]: 68.5% | viability, T/C [6]: 36% | viability, T/C [7]: 108% | viability, T/C [8]: 104% | viability, T/C [9]: 106% | viability, T/C [10]: 102% | viability, T/C [11]: 67.8% | viability, T/C [12]: 34.5% | viability, T/C [13]: 105% | viability, T/C [14]: 101% | viability, T/C [15]: 107% | viability, T/C [16]: 107% | viability, T/C [17]: 71.9% | viability, T/C [18]: 35% | viability, T/C [19]: 106% | viability, T/C [20]: 95.7% | viability, T/C [21]: 114% | viability, T/C [22]: 108% | viability, T/C [23]: 68% | viability, T/C [24]: 43.2% | viability, T/C [25]: 118% | viability, T/C [26]: 95.8% | viability, T/C [27]: 97.2% | viability, T/C [28]: 108% | viability, T/C [29]: 78.3% | viability, T/C [30]: 40.3% | viability, T/C [31]: 95.5% | viability, T/C [32]: 98.3% | viability, T/C [33]: 101% | viability, T/C [34]: 96.8% | viability, T/C [35]: 64.8% | viability, T/C [36]: 40.6%

COc1ccc([C@@H](O)c2cc(-c3ncnc4cc(N5CCOCC5)ccc34)c(F)cc2Cl)nn1 + CN(C)c1ccc(Nc2c3ccc(NC(=O)CCN4CCCC4)cc3nc3cc(NC(=O)CCN4CCCC4)ccc23)cc1
IC50 (second compound 0.0316 µM): > 10 µM | IC50 (second compound 0.1 µM): > 10 µM | IC50 (second compound 0.316 µM): > 10 µM | IC50 (second compound 1 µM): > 10 µM | IC50 (second compound 3.16 µM): > 10 µM | IC50 (second compound 10 µM): > 10 µM | viability, T/C [1]: 106% | viability, T/C [2]: 103% | viability, T/C [3]: 106% | viability, T/C [4]: 105% | viability, T/C [5]: 91.9% | viability, T/C [6]: 74.5% | viability, T/C [7]: 107% | viability, T/C [8]: 111% | viability, T/C [9]: 100% | viability, T/C [10]: 108% | viability, T/C [11]: 95.6% | viability, T/C [12]: 71.5% | viability, T/C [13]: 109% | viability, T/C [14]: 101% | viability, T/C [15]: 104% | viability, T/C [16]: 99.7% | viability, T/C [17]: 93% | viability, T/C [18]: 70.7% | viability, T/C [19]: 103% | viability, T/C [20]: 101% | viability, T/C [21]: 108% | viability, T/C [22]: 111% | viability, T/C [23]: 97.6% | viability, T/C [24]: 78.9% | viability, T/C [25]: 104% | viability, T/C [26]: 99.3% | viability, T/C [27]: 106% | viability, T/C [28]: 102% | viability, T/C [29]: 90.5% | viability, T/C [30]: 83.3% | viability, T/C [31]: 110% | viability, T/C [32]: 93.6% | viability, T/C [33]: 98.5% | viability, T/C [34]: 97.7% | viability, T/C [35]: 77% | viability, T/C [36]: 64.2%
